Test results: article PMC9820070, “Synthesis, Photochemistry, Computational Study and Potential Application of New Styryl-Thiophene and Naphtho-Thiophene Benzylamines” (International Journal of Molecular Sciences, 2022)

How the values were obtained:
THP-1 cell line = assay: THP-1 cell viability assay (CellTiter Glo); type: cell-based; settings: THP-1, 72 h incubation
[1] = system: TNFα production in human PBMCs; assay: TNFα production in LPS stimulated PBMCs; type: cell-based; settings: compound treatment and LPS stimulation
[2] = molecular target: T1, butyrylcholinesterase from equine serum (Equus caballus, UniProt P81908); assay: biochemical
T1 sequence (P81908 whole entry): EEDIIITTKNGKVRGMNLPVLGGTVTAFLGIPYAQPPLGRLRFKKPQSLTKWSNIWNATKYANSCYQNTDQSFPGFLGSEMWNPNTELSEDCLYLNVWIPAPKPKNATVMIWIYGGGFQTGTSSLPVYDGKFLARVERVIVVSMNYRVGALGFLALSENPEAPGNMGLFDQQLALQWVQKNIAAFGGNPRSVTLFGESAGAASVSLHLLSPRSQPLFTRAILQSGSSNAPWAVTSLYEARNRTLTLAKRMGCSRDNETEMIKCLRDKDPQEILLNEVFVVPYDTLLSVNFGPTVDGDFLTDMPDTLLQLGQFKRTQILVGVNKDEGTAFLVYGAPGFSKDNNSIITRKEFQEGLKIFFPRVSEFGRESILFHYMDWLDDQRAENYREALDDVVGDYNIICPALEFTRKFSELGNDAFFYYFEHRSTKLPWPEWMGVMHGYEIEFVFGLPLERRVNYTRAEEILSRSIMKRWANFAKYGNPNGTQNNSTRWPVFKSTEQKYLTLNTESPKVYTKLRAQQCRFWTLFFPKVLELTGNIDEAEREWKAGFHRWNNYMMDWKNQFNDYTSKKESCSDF

[3] = system: TNFα production in human PBMCs; set-up: method as in PMID 35228009; settings: earlier work; cited from earlier work
[4] = molecular target: T1, butyrylcholinesterase from equine serum; settings: earlier work; cited from earlier work
[5] = Acid resistance: pH change of UV spectra and NMR control at pH 1; type: physicochemical; settings: 1H NMR spectrum recorded at pH 1
[6] = molecular target: acetylcholinesterase from electric eel (Electrophorus electricus, UniProt O42275); assay: biochemical
Sequence of acetylcholinesterase from electric eel (O42275 24-633): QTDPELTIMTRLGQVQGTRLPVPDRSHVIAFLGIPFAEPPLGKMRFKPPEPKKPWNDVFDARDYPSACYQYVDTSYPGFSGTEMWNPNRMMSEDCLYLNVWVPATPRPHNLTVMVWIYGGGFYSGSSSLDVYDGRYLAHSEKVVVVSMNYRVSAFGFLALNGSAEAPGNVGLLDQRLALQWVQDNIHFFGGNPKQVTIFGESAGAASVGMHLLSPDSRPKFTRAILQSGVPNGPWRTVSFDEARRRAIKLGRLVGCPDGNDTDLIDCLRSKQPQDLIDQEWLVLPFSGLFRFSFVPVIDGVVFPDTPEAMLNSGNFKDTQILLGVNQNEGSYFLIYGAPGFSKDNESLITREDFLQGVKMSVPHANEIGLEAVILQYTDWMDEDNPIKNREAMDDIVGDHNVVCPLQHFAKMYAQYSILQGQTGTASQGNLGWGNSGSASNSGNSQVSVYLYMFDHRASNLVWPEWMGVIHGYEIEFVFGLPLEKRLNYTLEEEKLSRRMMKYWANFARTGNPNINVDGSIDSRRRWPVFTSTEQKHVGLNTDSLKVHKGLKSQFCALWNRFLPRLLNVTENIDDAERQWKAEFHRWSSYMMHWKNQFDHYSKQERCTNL

SMILES: Fc1ccc(CNc2ccc3ccc4sccc4c3c2)cc1 [Compound 9, N-(4-fluorobenzyl)naphtho [2,1-b]thiophen-8-amine]
- effect on cell viability (antiproliferative activity) (THP-1 cell line): most potent
- effect on TNFα production [1]: did not have any effect

SMILES: COc1ccc(CNc2ccc3ccc4sccc4c3c2)cc1 [Compound 13, N-(4-methoxybenzyl)naphtho [2,1-b]thiophen-8-amine]
- effect on cell viability (antiproliferative activity) (THP-1 cell line): most potent
- effect on TNFα production [1]: did not have any effect

SMILES: c1csc(CNc2ccc3ccc4sccc4c3c2)c1 [Compound 15, N-(thiophen-2-ylmethyl)naphtho [2,1-b]thiophen-8-amine]
- IC50 ([2]; equine serum BChE, Ellman's method): ~32.3 µM

SMILES: C=CCn1nnc2ccc3sccc3c21 [allyl-thienobenzotriazole IV]
- TNFα production in PBMCs in response to the LPS stimulus [3]: strongly inhibited
- potency as inhibitor of eqBChE compared to the standard galantamine [4]: twice as potent

SMILES: C(=C/c1cccs1)/c1ccc(NCc2cccs2)cc1 [cis-8, (Z)-4-(2-(thiophen-2-yl)vinyl)-N-(thiophen-2-ylmethyl)aniline]
- acid resistance (1H NMR, cis configuration retained) [5]: strong acid resistance
- IC50 ([6]; electric eel AChE, Ellman's method): 133 µM

SMILES: Fc1ccc(CNc2ccc(/C=C/c3cccs3)cc2)cc1 [trans-2, (E)-N-(4-fluorobenzyl)-4-(2-(thiophen-2-yl)vinyl)aniline]
- effect on TNFα production [1]: did not have any effect

SMILES: C(=C\c1cccs1)/c1ccc(NCc2cccs2)cc1 [trans-8, (E)-4-(2-(thiophen-2-yl)vinyl)-N-(thiophen-2-ylmethyl)aniline]
- inhibition values, AChE [6]: smaller than 50%
- inhibition values, BChE ([2]; tested at final concentrations 20–250 μM): smaller than 50%
